Reference: PubChem BioAssay (NCI)
Several values for one entry are separate records, joined by “and”; a condition that tells them apart may be missing. Equal values may be shown once.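 In this assay, cells in 96-well plates receive the compound at five concentrations for 48 hours. Endpoints are linearly interpolated between the surrounding concentrations. GI50: concentration for 50% inhibition of growth. TGI: total growth inhibition.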

Legend:
Test in all cases: NCI anticancer screen, dose series, 48 h
[1] = system: UACC-257 melanoma
[2] = system: NCI/ADR-RES ovarian
[3] = system: HS 578T breast
[4] = system: SK-MEL-5 melanoma
[5] = system: T-47D breast
[6] = system: K-562 leukemia
[7] = system: BT-549 breast
[8] = system: LXFL 529 NSCLC
[9] = system: KM20L2 colon

Structure (SMILES)	GI50 [1]	TGI [1]	GI50 [2]	TGI [2]	GI50 [3]	TGI [3]	GI50 [4]	TGI [4]	GI50 [5]	TGI [5]	GI50 [6]	TGI [6]	GI50 [7]	TGI [7]	TGI [8]	TGI [9]	GI50 [9]
O=[N+]([O-])/C=C/c1c[nH]c2ccccc12	16.5 µM	30.6 µM	18.4 µM	40 µM	21.2 µM	66.6 µM	16 µM	32.1 µM	15 µM	37.7 µM	21.7 µM	61 µM	14.1 µM	27.5 µM			
CC(C)(O)C1OCC(C2CCC3(C)C4=CCC5C(C)(C)C(O)CCC5(C)C4CCC23C)CC1O (stereo not given)		39.3 µM		27 µM		29.3 µM		27.8 µM		26.6 µM		17.3 µM		24.8 µM			
CC(=O)OC(C)(C)/C=C/C(=O)[C@](C)(O)[C@H]1[C@H](O)C[C@@]2(C)[C@@H]3CC=C4[C@@H](C[C@H](O)C(=O)C4(C)C)[C@]3(C)C(=O)C[C@]12C		2.42 µM		15.2 µM		< 0.01 µM		0.135 µM		0.543 µM		16.8 µM		0.0201 µM			
COc1ccc(-c2cn[nH]c2-c2cc(OC)c(OC)c(OC)c2)cc1N	28.4 µM	> 100 µM	< 0.01 µM and 0.0379 µM	> 100 µM	< 0.01 µM and 0.0233 µM	> 100 µM	< 0.01 µM and 0.0405 µM		17.1 µM and 25 µM	77.4 µM and > 100 µM	< 0.01 µM	> 100 µM	< 0.01 µM and 0.0374 µM				
O=C(NC(=S)Nc1ccc(Cl)cc1)c1ccccc1	> 100 µM	> 100 µM	> 100 µM	> 100 µM	38.8 µM	> 100 µM	> 100 µM	> 100 µM	> 90.3 µM	> 100 µM	> 100 µM	> 100 µM	> 100 µM	> 100 µM			
CCOP(=O)(OCC)/C(C#N)=C/c1ccco1		> 100 µM						> 100 µM				> 100 µM			> 100 µM		
Cc1cc(S(=O)(=O)Nc2nnc(-c3ccccc3)c(-c3ccccc3)n2)c(SCc2ccccc2)cc1Cl	28.5 µM	70.1 µM	32.8 µM	90.3 µM	19.1 µM	52.8 µM	17 µM	33.5 µM	23.8 µM	52.3 µM	29.6 µM	> 100 µM	18.9 µM	41.8 µM			
O=C(NOCC1CC1)c1ccc(F)c(F)c1Nc1ccc(I)cc1Cl	0.0549 µM	0.517 µM	2.85 µM	> 47.9 µM	4.85 µM	> 92 µM	1.15 µM	5.83 µM	3.15 µM	> 52.3 µM	2.55 µM	> 35.3 µM	3.39 µM	> 100 µM			
C[C@H]1CCC/C=C/[C@@H]2C[C@H](O)C[C@H]2[C@H](O)[C@@H](S(=O)CCN(C)C)CC(=O)O1 (stereo not given in full)	0.0904 µM	> 100 µM	0.0629 µM	> 100 µM	0.0646 µM	> 40.8 µM	0.0374 µM	0.131 µM	0.338 µM		0.633 µM	> 100 µM	0.202 µM				
CC1NOC(=O)C1N=Nc1ccccc1Cl (stereo not given)		47 µM						32.9 µM				> 100 µM			> 100 µM	> 100 µM	
S=C(Nc1ccc(Cl)cc1)Nc1ccc(-c2nc3ccccc3[nH]2)cc1	14.7 µM	> 52 µM	17.2 µM	> 57.4 µM	6.49 µM	60.6 µM	6.37 µM	23.2 µM	5.34 µM	32.7 µM	5.2 µM	31.3 µM	19.1 µM	53.1 µM			
COC[n+]1cc2cc(OC)c(OC)cc2c2ccc3cc(OC)c(OC)cc3c21		> 100 µM						> 100 µM				> 100 µM			> 100 µM	> 100 µM	
COc1cc(/C=C/C(=O)c2ccc(Cl)cc2)ccc1OS(=O)(=O)c1ccc(C)cc1	14 µM	36.3 µM	9.38 µM	37.7 µM	3.99 µM	> 100 µM	12.4 µM	25.1 µM	9.27 µM	28.6 µM	2.87 µM	11.3 µM	5.64 µM	18.7 µM			
O=C(CCCn1ccnc1[N+](=O)[O-])NCCn1ccnc1		> 100 µM		> 100 µM		> 100 µM		> 100 µM		> 100 µM		> 100 µM		> 100 µM			
O=C(C(Br)Br)C(Br)C(Br)c1ccccc1 (stereo not given)	2.39 µM	7.24 µM	5.23 µM	72.4 µM	43.5 µM	> 100 µM	10.6 µM	22.7 µM	2.75 µM	9.69 µM	1.89 µM	5.37 µM	3.97 µM	14.1 µM			
CCN(CC)CCCCCCCNc1c2ccc(Cl)cc2nc2ccc(OC)cc12	1.27 µM	3.08 µM	1.03 µM	4.07 µM	1.79 µM	4.39 µM	1.68 µM	3.09 µM	2.24 µM	4.97 µM	0.258 µM	0.835 µM	1.68 µM	3.28 µM			
COc1c(O)ccc2c1CN1CCc3cc4c(cc3C1C2)OCO4 (stereo not given)		> 77.2 µM		90.2 µM		> 100 µM		> 100 µM		> 73.9 µM		> 100 µM		> 100 µM			
O=C([CH-]C(=O)c1ccccc1)c1ccccc1.O=C([CH-]C(=O)c1ccccc1)c1ccccc1.[Nd+3].[OH-].[OH3+]	15.2 µM	41.9 µM					3.94 µM	17.2 µM			3.31 µM	19.1 µM				28.8 µM	8.45 µM
CCOC(=O)Oc1c(OC)cc(C(=O)O[C@@H]2C[C@@H]3CN4CCc5c([nH]c6cc(OC)ccc56)[C@H]4C[C@@H]3[C@H](C(=O)OC)[C@H]2OC)cc1OC	12.4 µM	30.4 µM	4.37 µM	23.3 µM	7.09 µM	55.9 µM	7.86 µM	20.7 µM	2.97 µM	20.1 µM	3.5 µM	35.7 µM	9.08 µM	24.1 µM			
